# Results as given in patent US10513521B2, “Compositions and methods for inhibiting BMP” (The Brigham and Women's Hospital, Inc., priority 2014, dated 2019).
# Where a chain is given by its changes, count along the chain named. Several values for one entry are separate records, joined by “and”; a condition that tells them apart may be missing. Equal values may be shown once. Read-outs that look alike come from different tables or passages of the source.
# Key:
# ALK6 = ALK6 (Homo sapiens, UniProt O00238); test: TR-FRET enzymatic ALK kinase assay, ALK6
# Sequence of ALK6 (O00238 14-502): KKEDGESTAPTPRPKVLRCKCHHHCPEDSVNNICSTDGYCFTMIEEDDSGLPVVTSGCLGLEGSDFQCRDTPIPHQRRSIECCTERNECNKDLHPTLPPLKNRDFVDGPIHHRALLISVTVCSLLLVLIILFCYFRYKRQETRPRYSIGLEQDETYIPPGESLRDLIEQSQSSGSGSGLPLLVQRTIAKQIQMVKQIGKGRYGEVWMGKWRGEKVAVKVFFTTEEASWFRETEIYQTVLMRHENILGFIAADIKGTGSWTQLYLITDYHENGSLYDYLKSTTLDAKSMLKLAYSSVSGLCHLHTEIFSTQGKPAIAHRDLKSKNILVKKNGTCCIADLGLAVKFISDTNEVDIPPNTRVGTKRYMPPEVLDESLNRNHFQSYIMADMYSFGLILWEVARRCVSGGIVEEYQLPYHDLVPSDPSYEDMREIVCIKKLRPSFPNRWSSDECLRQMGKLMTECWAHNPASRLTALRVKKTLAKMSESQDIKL
# Procedure: (§1) Briefly, the ALKs enzymatic assay was initiated by dispense 2.5 μl enzyme in 1× kinase reaction buffer. The assay plate was then added with compounds followed by incubation at room temperature for 10 minutes. Then 2.5 μl/well substrate was added.
# ALK2 [1] = target: T1, ALK2 (Mus musculus, UniProt P37172); test: HTRF pSMAD1 cell-based ALK2 assay (C2C12 cells, BMP6 as agonist)
# T1 construct: The C2C12 cell line was selected for the measurement of ALK2 activity using BMP6 as the agonist; host or cells: C2C12
# T1 sequence (P37172 21-509): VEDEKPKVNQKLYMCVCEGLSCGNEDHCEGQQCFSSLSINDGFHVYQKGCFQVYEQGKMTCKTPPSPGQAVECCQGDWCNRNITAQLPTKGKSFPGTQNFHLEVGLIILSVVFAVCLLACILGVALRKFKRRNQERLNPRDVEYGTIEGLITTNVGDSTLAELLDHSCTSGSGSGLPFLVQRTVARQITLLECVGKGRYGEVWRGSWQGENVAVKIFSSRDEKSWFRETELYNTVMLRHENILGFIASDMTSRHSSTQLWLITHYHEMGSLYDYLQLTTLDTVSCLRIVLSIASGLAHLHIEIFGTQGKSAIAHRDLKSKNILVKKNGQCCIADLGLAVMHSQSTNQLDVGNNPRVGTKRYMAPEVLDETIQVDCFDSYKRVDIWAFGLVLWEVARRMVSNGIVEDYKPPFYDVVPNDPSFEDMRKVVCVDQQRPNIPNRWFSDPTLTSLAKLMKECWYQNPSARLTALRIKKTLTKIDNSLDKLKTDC
# Summary of the method: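 Cells pre-starved, plated in 0.1% FBS medium for 4 h, compound added for 30 min, then stimulated 30 min with BMP9 (BAOEC) or BMP6 (C2C12). Phospho-SMAD1 measured by HTRF after overnight room-temperature detection incubation.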
# ALK1 = ALK1 (Homo sapiens, UniProt P37023); test: TR-FRET enzymatic ALK kinase assay, ALK1
# Sequence of ALK1 (P37023 22-503): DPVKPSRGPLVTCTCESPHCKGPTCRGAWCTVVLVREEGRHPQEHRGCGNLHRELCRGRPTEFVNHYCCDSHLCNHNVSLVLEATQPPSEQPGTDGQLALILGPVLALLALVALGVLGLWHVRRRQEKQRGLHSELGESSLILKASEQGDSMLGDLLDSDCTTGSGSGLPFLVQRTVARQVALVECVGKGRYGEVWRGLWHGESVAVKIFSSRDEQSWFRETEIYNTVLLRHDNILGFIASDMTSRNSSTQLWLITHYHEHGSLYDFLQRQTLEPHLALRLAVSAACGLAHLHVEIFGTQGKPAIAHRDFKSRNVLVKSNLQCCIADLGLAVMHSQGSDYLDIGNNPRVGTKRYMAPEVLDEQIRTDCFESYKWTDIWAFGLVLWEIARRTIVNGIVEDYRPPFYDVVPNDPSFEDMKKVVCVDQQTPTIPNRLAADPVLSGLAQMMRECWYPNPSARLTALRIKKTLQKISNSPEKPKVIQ
# Procedure: as §1
# ALK4 = target: T2, ALK4 (Homo sapiens, UniProt P36896); test: TR-FRET enzymatic ALK kinase assay, ALK4
# T2 sequence (P36896 24-505): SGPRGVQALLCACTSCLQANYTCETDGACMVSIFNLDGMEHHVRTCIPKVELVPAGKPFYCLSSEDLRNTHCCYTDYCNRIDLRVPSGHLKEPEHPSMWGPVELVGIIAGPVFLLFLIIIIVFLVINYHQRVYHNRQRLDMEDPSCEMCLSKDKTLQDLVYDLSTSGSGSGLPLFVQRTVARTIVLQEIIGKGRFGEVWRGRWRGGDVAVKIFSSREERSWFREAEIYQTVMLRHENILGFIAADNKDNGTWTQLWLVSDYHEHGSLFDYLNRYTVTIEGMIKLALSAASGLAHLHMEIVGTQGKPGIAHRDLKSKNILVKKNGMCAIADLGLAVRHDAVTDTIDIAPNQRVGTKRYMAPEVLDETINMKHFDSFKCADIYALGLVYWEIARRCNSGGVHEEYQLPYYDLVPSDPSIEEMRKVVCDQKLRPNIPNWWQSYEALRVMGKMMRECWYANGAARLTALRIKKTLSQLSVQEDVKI
# Procedure: as §1
# ALK2 [2] = target: T3, ALK2 (Homo sapiens, UniProt Q04771); test: TR-FRET enzymatic ALK kinase assay, ALK2
# T3 sequence (Q04771 21-509): T1 sequence (P37172 21-509) with V1M, Q10P, I121L, E162D, S310P
# Procedure: as §1
# ALK5 = target: T4, ALK5 (Homo sapiens, UniProt P36897); test: TR-FRET enzymatic ALK kinase assay, ALK5
# T4 sequence (P36897 34-503): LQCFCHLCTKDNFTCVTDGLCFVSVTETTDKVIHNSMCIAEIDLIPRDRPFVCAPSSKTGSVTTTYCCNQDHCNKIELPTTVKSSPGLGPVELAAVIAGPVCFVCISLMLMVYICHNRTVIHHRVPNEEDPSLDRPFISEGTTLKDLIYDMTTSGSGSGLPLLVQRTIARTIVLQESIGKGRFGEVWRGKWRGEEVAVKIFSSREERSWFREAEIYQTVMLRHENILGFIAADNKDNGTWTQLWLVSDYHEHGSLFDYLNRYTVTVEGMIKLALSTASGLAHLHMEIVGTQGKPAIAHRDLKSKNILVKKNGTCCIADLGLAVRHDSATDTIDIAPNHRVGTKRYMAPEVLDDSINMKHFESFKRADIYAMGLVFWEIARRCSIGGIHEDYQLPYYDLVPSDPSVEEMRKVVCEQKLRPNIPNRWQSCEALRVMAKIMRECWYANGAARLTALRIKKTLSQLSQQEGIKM
# Procedure: Six ALK kinase enzyme assays were developed for determination of compound activities on ALK1, ALK2, ALK3, ALK4, ALK5 and ALK6.
# as §1
# [3] = cell-based assay, BMP6, read-out: Cell IC50 BMP6
# [4] = HTRF assay, BMP6 as agonist, C2C12 cells, read-out: BMP6 HTRF
SMILES,IC50 (ALK6) [nM],IC50 (ALK2 [1]; [3]) [nM],IC50 (ALK1) [nM],IC50 (ALK4) [nM],IC50 (ALK2 [2]) [nM],IC50 (ALK5) [nM],IC50 (ALK2 [1]; [4])
"CC1(c2ccc(-c3cnc4c(-c5cccc(S(C)(=O)=O)c5)cnn4c3)cc2)CCNCC1 [Compound 115, 6-(4-(4-methylpiperidin-4-yl)phenyl)-3-(3-(methylsulfonyl)phenyl)pyrazolo[1,5-a]pyrimidine]",9000,11,110,9100,33,> 10000,–
"C[C@@H]1CNC[C@H](C)N1c1ccc(-c2cnc3c(-c4cccc(C[S+](C)(=O)[O-])c4)cnn3c2)cc1 [Compound 117, 6-(4-((2R,6S)-2,6-dimethylpiperazin-1-yl)phenyl)-3-(3-((methylsulfonyl)methyl)phenyl)pyrazolo[1,5-a]pyrimidine]",8700,66,200,8500,49,> 10000,–
"CS(=O)(=O)c1cccc(-c2cnn3cc(-c4ccc(CN5CCCCC5)cc4)cnc23)c1 [Compound 123, 3-(3-(methylsulfonyl)phenyl)-6-(4-(piperidin-1-ylmethyl)phenyl)pyrazolo[1,5-a]pyrimidine]",> 10000,2.4,210,> 10000,56,> 10000,150 nM and 130 nM
"CC(O)c1cccc(-c2cnn3cc(-c4ccc(OC5(CN6CCCCC6)CC5)cc4)cnc23)c1 (stereo not shown) [Compound 143, 1-(3-(6-(4-(1-(piperidin-1-ylmethyl)cyclopropoxy)phenyl)pyrazolo[1,5-a]pyrimidin-3-yl)phenyl)ethanol]",9600,–,330,> 10000,47,> 10000,230 nM
